26 compounds from patent US20260125378A2, “Heterocyclic Compounds” (BeOne Medicines I GmbH, priority 2023, published 2026) can be followed below.

Test [1] deals with T1, Full length DGKα (D21-10BG, SignalChem) (Homo sapiens, UniProt P23743).
T1 construct: Full length DGKα (D21-10BG, SignalChem); purchased SignalChem D21-10BG
Nature of the test: Biochemical DGK IC50 assay (ADP-Glo, lipid micelle substrate), DGKα. The conditions noted are these: 1 hour preincubation, 1 hour reaction, room temperature. In outline:
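Full-length human DGKα with DAG/PS lipid micelle substrate (in octyl glucoside buffer), reacted 1 h at room temperature in 50 mM HEPES, 10 mM MgCl2, 0.01 mM CaCl2, 0.1 mM Na3VO4, 0.01% BSA, 0.005% Tween-20. ADP formed read by ADP-Glo luminescence; IC50 from inhibition across increasing compound concentrations.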

Test [2] addresses T2, Full length DGKζ (in-house protein M1-V929) (Homo sapiens, UniProt Q13574).
T2 construct: His (N); TEV site (N); made in house; host or cells: Sf9 insect cells (Bac-to-Bac baculovirus)
Nature of the test: Biochemical DGK IC50 assay (ADP-Glo, lipid micelle substrate), DGKζ. The conditions noted are these: 1 hour preincubation, 1 hour reaction, room temperature. The method in brief: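 Full-length human DGKζ (M1-V929, His-TEV tagged, Sf9 baculovirus-expressed) with DAG/PS lipid micelle substrate in octyl glucoside, at room temperature in 50 mM HEPES, 10 mM MgCl2, 0.01 mM CaCl2 buffer.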

T1 sequence (P23743 whole entry): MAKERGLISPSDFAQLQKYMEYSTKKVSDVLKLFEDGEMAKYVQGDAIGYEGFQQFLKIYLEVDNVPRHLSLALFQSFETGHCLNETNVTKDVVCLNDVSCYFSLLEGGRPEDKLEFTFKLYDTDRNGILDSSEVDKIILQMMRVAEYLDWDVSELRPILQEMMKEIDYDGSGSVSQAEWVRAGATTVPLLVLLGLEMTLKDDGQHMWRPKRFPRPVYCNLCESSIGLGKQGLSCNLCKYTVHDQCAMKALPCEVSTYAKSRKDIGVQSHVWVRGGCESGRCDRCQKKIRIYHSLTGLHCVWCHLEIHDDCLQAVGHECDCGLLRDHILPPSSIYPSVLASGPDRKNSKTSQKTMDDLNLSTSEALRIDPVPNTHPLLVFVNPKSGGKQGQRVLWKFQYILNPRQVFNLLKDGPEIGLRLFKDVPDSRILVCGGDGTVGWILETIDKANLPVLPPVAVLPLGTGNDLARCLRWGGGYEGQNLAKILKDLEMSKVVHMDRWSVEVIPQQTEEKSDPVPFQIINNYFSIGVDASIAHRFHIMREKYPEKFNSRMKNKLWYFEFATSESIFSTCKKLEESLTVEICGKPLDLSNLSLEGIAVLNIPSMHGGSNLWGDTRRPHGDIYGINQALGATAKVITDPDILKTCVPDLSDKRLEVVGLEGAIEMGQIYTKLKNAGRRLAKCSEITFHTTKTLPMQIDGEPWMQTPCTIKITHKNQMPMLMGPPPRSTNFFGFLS
T2 sequence (Q13574 1-929 isoform Q13574-4): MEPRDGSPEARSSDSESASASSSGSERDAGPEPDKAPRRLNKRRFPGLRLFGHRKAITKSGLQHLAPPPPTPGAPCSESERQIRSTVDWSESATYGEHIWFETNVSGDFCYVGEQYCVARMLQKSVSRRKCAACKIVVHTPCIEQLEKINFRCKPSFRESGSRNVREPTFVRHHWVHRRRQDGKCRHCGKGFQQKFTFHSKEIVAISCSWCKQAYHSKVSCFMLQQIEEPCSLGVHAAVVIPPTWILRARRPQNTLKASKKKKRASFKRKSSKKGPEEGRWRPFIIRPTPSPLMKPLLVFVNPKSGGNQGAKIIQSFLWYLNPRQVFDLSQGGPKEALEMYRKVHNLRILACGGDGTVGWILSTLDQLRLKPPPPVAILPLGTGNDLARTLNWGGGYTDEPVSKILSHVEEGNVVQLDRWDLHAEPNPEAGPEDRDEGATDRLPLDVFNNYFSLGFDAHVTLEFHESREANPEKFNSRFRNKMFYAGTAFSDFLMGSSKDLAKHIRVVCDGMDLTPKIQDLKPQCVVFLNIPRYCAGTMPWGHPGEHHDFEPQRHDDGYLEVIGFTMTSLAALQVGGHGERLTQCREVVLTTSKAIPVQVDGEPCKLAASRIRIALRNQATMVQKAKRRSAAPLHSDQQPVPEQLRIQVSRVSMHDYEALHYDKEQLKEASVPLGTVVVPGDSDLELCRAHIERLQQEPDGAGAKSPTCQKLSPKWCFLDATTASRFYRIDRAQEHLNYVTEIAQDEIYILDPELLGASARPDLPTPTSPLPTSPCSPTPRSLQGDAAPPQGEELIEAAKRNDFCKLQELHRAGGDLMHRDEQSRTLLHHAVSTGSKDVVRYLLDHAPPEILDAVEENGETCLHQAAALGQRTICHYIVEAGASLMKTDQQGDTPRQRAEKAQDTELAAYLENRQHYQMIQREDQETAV

As for `CCn1c(CC#N)nc2c(N3C[C@@H](C)N(C(C)c4ccnc(C(=O)NC)c4)C[C@@H]3C)nc(=O)n(C)c21` (stereo partly drawn) [Compound A130, 4-(1-((2R,5S)-4-(8-(cyanomethyl)-9-ethyl-3-methyl-2-oxo-3,9-dihydro-2H-purin-6-yl)-2,5-dimethylpiperazin-1-yl)ethyl)-N-methylpicolinamide], the IC50 in test [1] is above 150000 nM; in test [2] it was 3900 nM.

Consider `CCn1c(CC#N)nc2c(N3C[C@@H](C)N(C(C)c4nc5c(cc4Cl)OCC(C)(C)O5)C[C@@H]3C)nc(=O)n(C)c21` (stereo partly drawn) [Compound A160, 2-(6-((2S,5R)-4-(1-(7-chloro-3,3-dimethyl-2,3-dihydro-[1,4]dioxino[2,3-b]pyridin-6-yl)ethyl)-2,5-dimethylpiperazin-1-yl)-9-ethyl-3-methyl-2-oxo-3,9-dihydro-2H-purin-8-yl)acetonitrile], for which the IC50 in test [1] was above 150000 nM; in test [2] it was 331 nM.

In the case of `CCn1c(CC#N)nc2c(N3C[C@@H](C)N(C(C)c4cc(Cl)c5c(c4)OC(C)(C)O5)C[C@@H]3C)nc(=O)n(C)c21` (stereo partly drawn) [Compound A171, 2-(6-((2S,5R)-4-(1-(7-chloro-2,2-dimethylbenzo[d][1,3]dioxol-5-yl)ethyl)-2,5-dimethylpiperazin-1-yl)-9-ethyl-3-methyl-2-oxo-3,9-dihydro-2H-purin-8-yl)acetonitrile], the 50% inhibitory concentration (IC50) in test [1] is 65800 nM; in test [2], 107 nM.

With `CCn1c(CC#N)nc2c(N3C[C@@H](C)N(C(C)c4ccc5c(n4)OC(C)(C)C5)C[C@@H]3C)nc(=O)n(C)c21` (stereo partly drawn) [Compound A180, 2-(6-((2S,5R)-4-(1-(2,2-dimethyl-2,3-dihydrofuro[2,3-b]pyridin-6-yl)ethyl)-2,5-dimethylpiperazin-1-yl)-9-ethyl-3-methyl-2-oxo-3,9-dihydro-2H-purin-8-yl)acetonitrile], the IC50 in test [1] was above 150000 nM; in test [2], 4440 nM.

On to `CCn1c(CC#N)nc2c(N3C[C@@H](C)N(C(C)c4ccc5c(c4F)OC(C)(C)O5)C[C@@H]3C)c(F)c(=O)n(C)c21` (single isomer, unassigned) [Compound A190b], for which the IC50 in test [1] worked out at 38200 nM; in test [2] it was 41 nM.

Turning to `CCn1c(CC#N)nc2c(N3C[C@@H](C)N(C(C)c4cc5c(cc4F)OC(C)(C)CO5)C[C@@H]3C)nc(=O)n(C)c21` (single isomer, unassigned) [Compound A156b], the IC50 in test [1] was 14100 nM; in test [2], 6 nM.

Take `CC(c1ccc2nccnc2c1)N1C[C@H](C)N(c2cc(=O)n(C)c3sc(CC#N)nc23)C[C@H]1C` (single isomer, unassigned) [Compound A194b]: the IC50 was 7020 nM in test [1] and 873 nM in test [2].

For `CCn1c(CC#N)nc2c(N3C[C@@H](C)N(C(C)c4cc5c(cc4F)OC(C)(C)O5)C[C@@H]3C)nc(=O)n(C)c21` (single isomer, unassigned) [Compound A174b], the IC50 was found to be 30600 nM in test [1] and 69 nM in test [2].

With `Cc1cccc(C(C)N2C[C@H](C)N(c3c(F)c(=O)n(C)c4c3nc(CC#N)n4C)C[C@H]2C)c1C(F)(F)F` (single isomer, unassigned) [Compound A17a], the concentration for half-maximal inhibition (IC50) in test [1] worked out at 1460 nM; in test [2] it was 133 nM.

As to `CCn1c(CC#N)nc2c(N3C[C@@H](C)N(C(C)c4ccc5c(c4Cl)OC(C)(C)O5)C[C@@H]3C)nc(=O)n(C)c21` (single isomer, unassigned) [Compound A172b], the IC50 in test [1] is 116000 nM; in test [2], 8 nM.

As for `CCn1c(CC#N)nc2c(N3C[C@@H](C)N(C(C)c4cc5c(cc4F)OCC(C)(C)O5)C[C@@H]3C)nc(=O)n(C)c21` (single isomer, unassigned) [Compound A157b], the IC50 in test [1] came to 55700 nM; in test [2], 346 nM.

Take `CC(c1ccc2c(c1)OC(C)(C)O2)N1C[C@H](C)N(c2nc(=O)n(C)c3c2nc(CC#N)n3C)C[C@H]1C` (single isomer, unassigned) [Compound A98a]: the half-inhibitory concentration (IC50) in test [1] amounted to 14300 nM; in test [2] it was 5 nM.

Regarding `CC(c1ccc2c(n1)OC(C)(C)CO2)N1C[C@H](C)N(c2nc(=O)n(C)c3c2nc(CC#N)n3CC(F)F)C[C@H]1C` (stereo partly drawn) [Compound A165, 2-(9-(2,2-difluoroethyl)-6-((2S,5R)-4-(1-(3,3-dimethyl-2,3-dihydro-[1,4]dioxino[2,3-b]pyridin-6-yl)ethyl)-2,5-dimethylpiperazin-1-yl)-3-methyl-2-oxo-3,9-dihydro-2H-purin-8-yl)acetonitrile], the figures for the concentration for half-maximal inhibition (IC50) in test [1] and in test [2] were above 150000 nM and 69 nM, respectively.

For the compound `CCn1c(CC#N)nc2c(N3C[C@@H](C)N(C(C)c4cccc(C(C)C)n4)C[C@@H]3C)nc(=O)n(C)c21` (stereo partly drawn) [Compound A123, 2-(9-ethyl-6-((2S,5R)-4-(1-(6-isopropylpyridin-2-yl)ethyl)-2,5-dimethylpiperazin-1-yl)-3-methyl-2-oxo-3,9-dihydro-2H-purin-8-yl)acetonitrile], the half-inhibitory concentration (IC50) in test [1] was determined as 128000 nM; in test [2] it was 49 nM.

Take `CC[C@@H]1CN(c2nc(=O)n(C)c3c2nc(CC#N)n3C)[C@@H](C)CN1C(C)c1ccc2ncc(C)nc2c1` (single isomer, unassigned) [Compound A50a]: the IC50 in test [1] worked out at 24700 nM; in test [2] it was 4 nM.

Turning to `Cc1cccc(C(C)N2C[C@H](C)N(c3c(F)c(=O)n(C)c4c3nc(CC#N)n4C)C[C@H]2C)c1C(F)(F)F` (single isomer, unassigned) [Compound A17b], the IC50 in test [1] came out at 1580 nM; in test [2], 409 nM.

In the case of `CC(c1ccc2c(c1)OC(C)(C)CO2)N1C[C@H](C)N(c2c(F)c(=O)n(C)c3c2nc(CC#N)n3C)C[C@H]1C` (single isomer, unassigned) [Compound A19a], the IC50 in test [1] was 27500 nM; in test [2], 2.8 nM.

Take `CCn1c(CC#N)nc2c(N3C[C@@H](C)N(C(C)c4ccc5c(c4)OC(C)(C)O5)C[C@@H]3C)nc(=O)n(C)c21` (mixture of isomers) [Compound A85, 2-(6-((2S,5R)-4-(1-(2,2-dimethylbenzo[d][1,3]dioxol-5-yl)ethyl)-2,5-dimethylpiperazin-1-yl)-9-ethyl-3-methyl-2-oxo-3,9-dihydro-2H-purin-8-yl)acetonitrile]: the concentration for half-maximal inhibition (IC50) in test [1] stood at 103000 nM; in test [2], 25 nM.

`CCn1c(CC#N)nc2c(N3C[C@@H](C)N(C(C)c4cccc(C5CC5)c4)C[C@@H]3C)nc(=O)n(C)c21` (stereo partly drawn) [Compound A125, 2-(6-((2S,5R)-4-(1-(3-cyclopropylphenyl)ethyl)-2,5-dimethylpiperazin-1-yl)-9-ethyl-3-methyl-2-oxo-3,9-dihydro-2H-purin-8-yl)acetonitrile]: the 50% inhibitory concentration (IC50) is above 150000 nM in test [1] and 42 nM in test [2].

As for `CCn1c(CC#N)nc2c(N3C[C@@H](C)N(C(C)c4ccc5c(c4)C(=O)N(C(C)C)C5=O)C[C@@H]3C)nc(=O)n(C)c21` (stereo partly drawn) [Compound A178, 2-(9-ethyl-6-((2S,5R)-4-(1-(2-isopropyl-1,3-dioxoisoindolin-5-yl)ethyl)-2,5-dimethylpiperazin-1-yl)-3-methyl-2-oxo-3,9-dihydro-2H-purin-8-yl)acetonitrile], the figures for the half-inhibitory concentration (IC50) in test [1] and in test [2] were 92400 nM and 15 nM, respectively.

On to `CCn1c(CC#N)nc2c(N3C[C@@H](C)N(C(C)c4ccn(C)c(=O)c4)C[C@@H]3C)nc(=O)n(C)c21` (stereo partly drawn) [Compound A107, 2-(6-((2S,5R)-2,5-dimethyl-4-(1-(1-methyl-2-oxo-1,2-dihydropyridin-4-yl)ethyl)piperazin-1-yl)-9-ethyl-3-methyl-2-oxo-3,9-dihydro-2H-purin-8-yl)acetonitrile], for which the half-maximal inhibitory concentration (IC50) in test [1] is above 150000 nM; in test [2], above 10000 nM.

For `CCn1c(CC#N)nc2c(N3C[C@@H](C)N(C(C)c4ccc(C)c(C(F)(F)F)c4)C[C@@H]3C)nc(=O)n(C)c21` (stereo partly drawn) [Compound A115, 2-(6-((2S,5R)-2,5-dimethyl-4-(1-(4-methyl-3-(trifluoromethyl)phenyl)ethyl)piperazin-1-yl)-9-ethyl-3-methyl-2-oxo-3,9-dihydro-2H-purin-8-yl)acetonitrile], the values for the half-inhibitory concentration (IC50) in test [1] and in test [2] were above 150000 nM and 19 nM, respectively.

With `CCn1c(CC#N)nc2c(N3C[C@@H](C)N(C(C)c4ccc5c(n4)OC(C)CO5)C[C@@H]3C)nc(=O)n(C)c21` (stereo partly drawn) [Compound A89, 2-(6-((2S,5R)-2,5-dimethyl-4-(1-(3-methyl-2,3-dihydro-[1,4]dioxino[2,3-b]pyridin-6-yl)ethyl)piperazin-1-yl)-9-ethyl-3-methyl-2-oxo-3,9-dihydro-2H-purin-8-yl)acetonitrile], the results for the 50% inhibitory concentration (IC50) in test [1] and in test [2] were above 150000 nM and 334 nM, respectively.

Turning to `CCn1c(CC#N)nc2c(N3C[C@@H](C)N(C(C)c4cccc(OC(C)C)n4)C[C@@H]3C)nc(=O)n(C)c21` (single isomer, unassigned) [Compound A117a], the concentration for half-maximal inhibition (IC50) was above 150000 nM in test [1] and 3300 nM in test [2].

Turning to `CCn1c(CC#N)nc2c(N3C[C@@H](C)N(C(C)c4ccc5occ(C)c(=O)c5c4)C[C@@H]3C)nc(=O)n(C)c21` (stereo partly drawn) [Compound A91, 2-(6-((2S,5R)-2,5-dimethyl-4-(1-(3-methyl-4-oxo-4H-chromen-6-yl)ethyl)piperazin-1-yl)-9-ethyl-3-methyl-2-oxo-3,9-dihydro-2H-purin-8-yl)acetonitrile], the IC50 is above 150000 nM in test [1] and 20 nM in test [2].

`CCn1c(CC#N)nc2c(N3C[C@@H](C)N(C(C)c4ccc5c(c4)OC(C)(C)C5)C[C@@H]3C)nc(=O)n(C)c21` (stereo partly drawn) [Compound A97, 2-(6-((2S,5R)-4-(1-(2,2-dimethyl-2,3-dihydrobenzofuran-6-yl)ethyl)-2,5-dimethylpiperazin-1-yl)-9-ethyl-3-methyl-2-oxo-3,9-dihydro-2H-purin-8-yl)acetonitrile]: the IC50 in test [1] came out at 51100 nM; in test [2] it was 11 nM.

What is called IC50 is the concentration at which inhibition is half-maximal. Low values mean inhibition by little substance, high ones a need for much substance.
